Structures can show the parent of a compound that is named as a salt. Where two headings read alike, the source gives them in different places.
What was measured:
[1] = system: NCI-H292 lung cancer cells; test: FDA drug screening, complete media vs cholesterol-free media without statin (TABLE 1); assay type: cell-based, human
[2] = system: NCI-H292 lung cancer cells; test: FDA drug screening, complete media vs cholesterol-free media with simvastatin (TABLE 2); assay type: cell-based, human
[3] = Complete minus Cholesterol-free, greater than 0 enhanced anti-cancer activity, about 0 neutral, below 0 antagonist
[4] = NCI-H292 cells, FDA drug library screen, cholesterol-free media without statin
[5] = NCI-H292 cells, FDA drug library screen, complete media
[6] = NCI-H292 cells, FDA library drug in cholesterol-free media with simvastatin 0.04 μM
[7] = NCI-H292 cells, FDA library drug in complete media
[8] = complete media vs cholesterol-free media + simvastatin (0.04 μM), >0 enhanced anti-cancer activity, about 0 neutral, <0 antagonist
[9] = NCI-H292 cells, FDA drug library screen, cholesterol-free media with simvastatin 0.04 μM
[10] = NCI-H292 cells, cholesterol-free media without statin, FDA drug library screen
[11] = NCI-H292 cells, complete media, FDA drug library screen
[12] = complete vs cholesterol-free media, >0 enhanced anti-cancer activity, about 0 neutral, <0 antagonist
[13] = Complete minus Cholesterol-free, >0 enhanced anti-cancer activity, about 0 neutral, <0 antagonist
[14] = NCI-H292 cells, cholesterol-free media without statin
[15] = NCI-H292 cells, cholesterol-free media with simvastatin 0.04 μM, cell growth value in FDA drug screen
[16] = NCI-H292 cells, complete media, cell growth value in FDA drug screen
[17] = complete media minus cholesterol-free media + simvastatin, >0 enhanced anti-cancer activity, about 0 neutral, <0 antagonist
[18] = NCI-H292 cells, cholesterol-free media with simvastatin 0.04 μM, FDA drug library screen (TABLE 2)
[19] = NCI-H292 cells, complete media, FDA drug library screen (TABLE 2)
[20] = complete media minus cholesterol-free media + simvastatin (0.04 μM), >0 enhanced anti-cancer activity, about 0 neutral, <0 antagonist
[21] = NCI-H292 cells, drug in cholesterol-free media with simvastatin 0.04 μM
[22] = NCI-H292 cells, drug in complete media
[23] = complete vs cholesterol-free media, greater than 0 enhanced anti-cancer activity, about 0 neutral, below 0 antagonists
[24] = Complete minus Cholesterol-free, […]
[25] = Complete minus Cholesterol-free, greater than 0 enhanced anti-cancer activity, about 0 neutral, below 0 antagonists
[26] = NCI-H292 cells in cholesterol-free media without statin
[27] = NCI-H292 cells in complete media

O=C(CCCc1ccccc1)OCC(COC(=O)CCCc1ccccc1)OC(=O)CCCc1ccccc1 [Glycerol phenylbutyrate]
Difference [1, 3]: −0.17 | Cholesterol-free [1, 4]: 1.054 | Complete [1, 5]: 0.8817 | Cholesterol-free media + simvastatin (0.04 μM) [2, 6]: 1.737 | Complete Media [2, 7]: 1.34 | Difference [2, 8]: −0.40

Rasagiline (mesylate)
Difference [1, 3]: −0.16 | Cholesterol-free [1, 4]: 0.8816 | Complete [1, 5]: 0.7256 | Cholesterol-free media + simvastatin (0.04 μM) [2, 9]: 1.319 | Complete Media [2, 5]: 1.208 | Difference [2, 8]: −0.11

C=CCNc1nc(NCC=C)nc(N2CCN(C(c3ccc(F)cc3)c3ccc(F)cc3)CC2)n1 [Almitrine mesylate]
Cholesterol-free [1, 10]: 0.7257 | Complete [1, 11]: 0.8177 | Difference [1, 12]: 0.09 | Cholesterol-free media + simvastatin (0.04 μM) [2, 9]: 0.7616 | Complete Media [2, 5]: 0.6708 | Difference [2, 8]: −0.09

CCOCCn1c(N2CCCN(C)CC2)nc2ccccc21 [Emedastine]
Difference [1, 13]: −0.27 | Cholesterol-free [1, 14]: 0.9896 | Complete ([1]; NCI-H292 cells, complete media): 0.7182 | Cholesterol-free media + simvastatin (0.04 μM) [2, 15]: 0.8891 | Complete Media [2, 16]: 0.9093 | Difference [2, 17]: 0.02

CCN1CCCC1CNC(=O)c1cc(S(N)(=O)=O)ccc1OC (stereo not shown) [Sulpiride]
Difference [1, 13]: −0.22 | Cholesterol-free [1, 14]: 1.254 | Complete ([1]; NCI-H292 cells, complete media): 1.03 | Cholesterol-free media + simvastatin (0.04 μM) [2, 18]: 1.077 | Complete Media [2, 19]: 1.053 | Difference [2, 20]: −0.02

CCOC(=O)CC(=O)N1CCSC1COc1ccccc1OC (stereo not shown) [Moguisteine]
Cholesterol-free [1, 10]: 0.7084 | Complete [1, 11]: 1.262 | Difference [1, 12]: 0.55 | Cholesterol-free media + simvastatin (0.04 μM) [2, 18]: 0.9351 | Complete Media [2, 19]: 0.879 | Difference [2, 20]: −0.06

Cc1c(O)cccc1C(=O)N[C@@H](CSc1ccccc1)[C@H](O)CN1C[C@H]2CCCC[C@H]2C[C@H]1C(=O)NC(C)(C)C [Nelfinavir]
Difference [1, 13]: −0.25 | Cholesterol-free [1, 14]: 1.095 | Complete ([1]; NCI-H292 cells, complete media): 0.8463 | Cholesterol-free media + simvastatin (0.04 μM) [2, 6]: 1.243 | Complete Media [2, 7]: 0.8828 | Difference [2, 8]: −0.36

CC(C(=O)O)c1ccc2c(c1)Cc1cccnc1O2 (stereo not shown) [Pranoprofen]
Cholesterol-free [1, 10]: 0.6134 | Complete [1, 11]: 1.137 | Difference [1, 12]: 0.52 | Cholesterol-free media + simvastatin (0.04 μM) [2, 6]: 1.474 | Complete Media [2, 7]: 1.136 | Difference [2, 8]: −0.34

CC(=O)Oc1cc(C(C)C)c(OCCN(C)C)cc1C [Moxisylyte (hydrochloride)]
Difference [1, 13]: 0.07 | Cholesterol-free [1, 10]: 1.028 | Complete [1, 11]: 1.096 | Cholesterol-free media + simvastatin (0.04 μM) [2, 21]: 1.237 | Complete Media [2, 22]: 1.071 | Difference [2, 8]: −0.17

Cc1cn(-c2cc(NC(=O)c3ccc(C)c(Nc4nccc(-c5cccnc5)n4)c3)cc(C(F)(F)F)c2)cn1 [Nilotinib]
Cholesterol-free [1, 14]: 1.511 | Complete ([1]; NCI-H292 cells, complete media): 1.113 | Difference [1, 23]: −0.40 | Cholesterol-free media + simvastatin (0.04 μM) [2, 15]: 0.9437 | Complete Media [2, 16]: 0.9791 | Difference [2, 17]: 0.04

CCCCOc1cc(C(=O)OCCN(CC)CC)ccc1N [Oxybuprocaine hydrochloride]
Cholesterol-free [1, 10]: 0.7998 | Complete [1, 11]: 0.9021 | Difference [1, 12]: 0.10 | Cholesterol-free media + simvastatin (0.04 μM) [2, 9]: 0.4662 | Complete Media [2, 5]: 1.022 | Difference [2, 17]: 0.56

Guanethidine (sulfate)
Cholesterol-free [1]: 1.619 | Complete [1]: 1.336 | Difference [1]: −0.28 | Cholesterol-free media + simvastatin (0.04 μM) [2]: 1.914 | Complete Media [2]: 1.674 | Difference [2]: −0.24

COc1ccc(CN(CCN(C)C)c2ccccn2)cc1 [Mepyramine maleate]
Difference [1, 3]: −0.17 | Cholesterol-free [1, 4]: 1.527 | Complete [1, 5]: 1.356 | Cholesterol-free media + simvastatin (0.04 μM) [2, 6]: 1.226 | Complete Media [2, 7]: 0.8399 | Difference [2, 8]: −0.39

CC1(C)S[C@@H]2[C@H](NC(=O)[C@H](N)c3ccc(O)cc3)C(=O)N2[C@H]1C(=O)[O-].[Na+] [Amoxicillin (sodium)]
Difference [1, 3]: −0.16 | Cholesterol-free [1, 4]: 0.8965 | Complete [1, 5]: 0.7329 | Cholesterol-free media + simvastatin (0.04 μM) [2, 21]: 0.9358 | Complete Media [2, 22]: 0.759 | Difference [2, 8]: −0.18

O=Cc1ccc(O[C@@H]2O[C@H](CO)[C@@H](O)[C@@H](O)[C@H]2O)cc1 [Helicid]
Difference [1, 24]: −0.20 | Cholesterol-free [1, 14]: 1.202 | Complete ([1]; NCI-H292 cells, complete media): 1.003 | Cholesterol-free media + simvastatin (0.04 μM) [2, 21]: 1.093 | Complete Media [2, 22]: 0.9239 | Difference ([2]; complete media vs cholesterol-free media + simvastatin (0.04 μM), […]): −0.17

CNC(=O)c1ccc(N2C(=S)N(c3ccc(C#N)c(C(F)(F)F)c3)C(=O)C2(C)C)cc1F [Enzalutamide]
Cholesterol-free [1, 10]: 0.885 | Complete [1, 11]: 1.326 | Difference [1, 12]: 0.44 | Cholesterol-free media + simvastatin (0.04 μM) [2, 6]: 0.7893 | Complete Media [2, 7]: 0.3116 | Difference [2, 8]: −0.48

NC(=O)CN1CCCC1=O [Piracetam]
Difference [1, 25]: −0.50 | Cholesterol-free [1, 26]: 1.403 | Complete [1, 27]: 0.9062 | Cholesterol-free media + simvastatin (0.04 μM) [2, 9]: 1.178 | Complete Media [2, 5]: 1.066 | Difference [2, 8]: −0.11

Tandospirone (citrate)
Cholesterol-free [1, 14]: 1.167 | Complete ([1]; NCI-H292 cells, complete media): 0.8565 | Difference [1, 23]: −0.31 | Difference [2, 20]: 0.00

Nc1ccncc1N [Amifampridine]
Cholesterol-free [1, 14]: 1.476 | Complete ([1]; NCI-H292 cells, complete media): 1.141 | Difference [1, 23]: −0.33 | Cholesterol-free media + simvastatin (0.04 μM) [2, 21]: 1.299 | Complete Media [2, 22]: 1.071 | Difference [2, 8]: −0.23

COc1cccc(N(C)C(=S)Oc2ccc3c(c2)CCCC3)n1 [Liranaftate]
Cholesterol-free [1]: 1.279 | Complete [1]: 0.8388 | Difference [1]: −0.44 | Cholesterol-free media + simvastatin (0.04 μM) [2]: 0.9604 | Complete Media [2]: 0.9217 | Difference [2]: −0.04

NC[C@H](O)c1ccc(O)c(O)c1 [Norepinephrine]
Difference [1, 13]: −0.02 | Cholesterol-free [1, 10]: 0.981 | Complete [1, 11]: 0.9634 | Cholesterol-free media + simvastatin (0.04 μM) [2, 18]: 0.9481 | Complete Media [2, 19]: 0.884 | Difference [2, 20]: −0.06

CCN(CC)CC(=O)Nc1c(C)cccc1C [Lidocaine (hydrochloride)]
Difference [1, 13]: −0.22 | Cholesterol-free [1, 14]: 1.21 | Complete ([1]; NCI-H292 cells, complete media): 0.9883 | Cholesterol-free media + simvastatin (0.04 μM) [2, 18]: 0.8862 | Complete Media [2, 19]: 0.8646 | Difference [2, 20]: −0.02

Thiamine nitrate
Difference [1, 13]: −0.26 | Cholesterol-free [1, 14]: 0.9749 | Complete ([1]; NCI-H292 cells, complete media): 0.7175 | Cholesterol-free media + simvastatin (0.04 μM) [2, 21]: 0.9067 | Complete Media [2, 22]: 0.7018 | Difference [2, 8]: −0.20

C[S+](CC[C@H](N)C(=O)[O-])C[C@H]1O[C@@H](n2cnc3c(N)ncnc32)[C@H](O)[C@@H]1O.Cc1ccc(S(=O)(=O)O)cc1.O=S(=O)(O)O.O=S(=O)(O)O (stereo partly shown)
Difference [1, 3]: −0.11 | Cholesterol-free [1, 4]: 1.112 | Complete [1, 5]: 1.004 | Cholesterol-free media + simvastatin (0.04 μM) [2, 9]: 1.19 | Complete Media [2, 5]: 1.075 | Difference [2, 8]: −0.12

O=C1[C@H](CC[C@H](O)c2ccc(F)cc2)[C@@H](c2ccc(O)cc2)N1c1ccc(F)cc1 [Ezetimibe]
Difference [1, 25]: −0.66 | Cholesterol-free [1, 26]: 1.871 | Complete [1, 27]: 1.209 | Cholesterol-free media + simvastatin (0.04 μM) [2, 15]: 1.247 | Complete Media [2, 16]: 1.268 | Difference [2, 17]: 0.02

CCN(CC)CCOC(=O)C1(C2CCCCC2)CCCCC1 [Dicyclomine (hydrochloride)]
Cholesterol-free [1, 14]: 1.211 | Complete ([1]; NCI-H292 cells, complete media): 0.8491 | Difference [1, 23]: −0.36 | Cholesterol-free media + simvastatin (0.04 μM) [2, 9]: 0.9961 | Complete Media [2, 5]: 0.9187 | Difference [2, 8]: −0.08

O=c1[nH]cnc2c1ncn2[C@H]1CC[C@@H](CO)O1 [Didanosine]
Difference [1, 13]: −0.23 | Cholesterol-free [1, 14]: 0.9969 | Complete ([1]; NCI-H292 cells, complete media): 0.7675 | Cholesterol-free media + simvastatin (0.04 μM) [2, 9]: 0.9758 | Complete Media [2, 5]: 0.8636 | Difference [2, 8]: −0.11

CNC(=O)c1cc(Oc2ccc(NC(=O)Nc3ccc(Cl)c(C(F)(F)F)c3)cc2)ccn1 [Sorafenib]
Cholesterol-free [1, 10]: 0.8045 | Complete [1, 11]: 1.015 | Difference [1, 12]: 0.21 | Cholesterol-free media + simvastatin (0.04 μM) [2, 9]: 0.7364 | Complete Media [2, 5]: 0.915 | Difference [2, 17]: 0.18

CN1CCCC(n2nc(Cc3ccc(Cl)cc3)c3ccccc3c2=O)CC1 (stereo not shown) [Azelastine (hydrochloride)]
Cholesterol-free [1, 10]: 0.9594 | Complete [1, 11]: 1.039 | Difference [1, 12]: 0.08 | Cholesterol-free media + simvastatin (0.04 μM) [2, 21]: 1.092 | Complete Media [2, 22]: 0.8741 | Difference [2, 8]: −0.22

CCOC(=O)/C=C(C)/C=C/C=C(C)/C=C/c1c(C)cc(OC)c(C)c1C [Etretinate]
Difference [1, 24]: −0.71 | Cholesterol-free [1, 26]: 1.459 | Complete [1, 27]: 0.7469 | Cholesterol-free media + simvastatin (0.04 μM) [2, 9]: 0.824 | Complete Media [2, 5]: 1.055 | Difference ([2]; complete media minus cholesterol-free media + simvastatin, […]): 0.23

From patent US20250144067A1, “PERSONALIZED STARVATION THERAPY FOR CANCER” (Faeth Therapeutics, Inc., priority 2021, published 2025)
